Measured values from the supplement of paper PMC10307832.

Key:
Midostaurin + Trametinib = compound: CO[C@@H]1[C@H](N(C)C(=O)c2ccccc2)C[C@H]2O[C@]1(C)n1c3ccccc3c3c4c(c5c6ccccc6n2c5c31)C(=O)NC4 [Midostaurin] + CC(=O)Nc1cccc(-n2c(=O)n(C3CC3)c(=O)c3c(Nc4ccc(I)cc4F)n(C)c(=O)c(C)c32)c1 [Trametinib] (partner 0.02 µM); assay: relative viability (nuclei count vs DMSO), 5 days (fraction); higher = more cells survive
Method in brief: (§1)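 Medians of duplicate plates are given as relative viability. That measure is the nuclei count in treated wells divided by the count in vehicle wells. Counts were taken on 4× images of lung cancer cell lines in 1536-well plates, 5 days after pin-tool dosing the day after seeding with one drug alone or a fixed anchor-drug dose plus five library-drug doses (not always all listed) in √10 steps.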

[1] = compound: COc1cc(-c2nn([C@H]3CC[C@H](N4CCN(C(C)=O)CC4)CC3)c3ncnc(N)c23)ccc1NC(=O)c1cc2ccccc2n1C + Cc1nc(Nc2ncc(C(=O)Nc3c(C)cccc3Cl)s2)cc(N2CCN(CCO)CC2)n1 [Dasatinib] (partner 0.075 µM); assay: as above
Method in brief: as §1

Cell Line | relative viability (Midostaurin + Trametinib; first compound 0.01 µM) | relative viability (Midostaurin + Trametinib; first compound 0.03162 µM) | relative viability (Midostaurin + Trametinib; first compound 0.1 µM) | relative viability (Midostaurin + Trametinib; first compound 0.3162 µM) | relative viability ([1]; first compound 0.0128 µM) | relative viability ([1]; first compound 0.04048 µM) | relative viability ([1]; first compound 0.128 µM) | relative viability ([1]; first compound 1.28 µM)
HCC-44 | 1.05 | 1.01 | 1.06 | 1.05 | – | – | – | –
HCC-827 | 0.557 | 0.488 | 0.607 | 0.641 | 0.311 | 0.313 | 0.281 | 0.275
NCI-H1623 | – | – | – | – | 0.526 | 0.497 | 0.557 | 0.572
NCI-H2347 | 0.29 | 0.278 | 0.309 | 0.337 | 0.262 | – | 0.333 | 0.308
PC-14 | 0.707 | 0.914 | 0.692 | 0.635 | 0.243 | 0.265 | 0.282 | 0.278
NCI-H1651 | 0.81 | 0.804 | 0.795 | 0.949 | 0.426 | 0.568 | 0.432 | 0.458
HARA | 0.994 | 0.663 | 0.887 | 0.393 | 0.259 | 0.21 | 0.269 | 0.236
NCI-H1650 | 0.64 | 0.587 | 0.594 | 0.694 | 0.265 | 0.304 | 0.32 | 0.29
NCI-H1395 | 0.978 | 0.991 | 1.15 | 1.08 | 0.414 | 0.464 | 0.465 | 0.449
LU99A | 0.592 | 0.558 | 0.421 | 0.456 | 0.541 | 0.541 | 0.634 | 0.556
NCI-H1355 | 0.413 | 0.459 | 0.477 | 0.487 | 0.834 | 0.798 | 0.719 | 0.884
HCC-78 | 0.757 | 0.612 | 0.739 | 0.463 | 0.375 | 0.401 | 0.234 | 0.24
NCI-H1563 | – | – | – | – | 0.481 | 0.484 | 0.532 | 0.488
HCC-15 | 0.411 | 0.353 | 0.367 | 0.372 | 0.638 | 0.593 | 0.684 | 0.731
EKVX | 0.321 | 0.348 | 0.292 | 0.351 | 0.859 | 0.611 | 0.505 | 0.385
NCI-H2087 | 0.178 | 0.221 | 0.187 | 0.273 | 1.11 | – | 0.733 | 0.857
LK-2 | 0.767 | 0.713 | 0.855 | 0.618 | 0.312 | 0.264 | 0.326 | 0.417
NCI-H1437 | 0.615 | 0.502 | 0.588 | 0.518 | 0.428 | 0.437 | 0.439 | 0.302
COR-L23 | 0.599 | 0.555 | 0.573 | 0.497 | 0.503 | 0.529 | 0.462 | 0.665
ABC-1 | – | – | – | – | 0.613 | 0.505 | 0.542 | 0.688
